Results on 29 compounds are retold here after patent US5589337A (priority 1995, dated 1996).

For one data set, the system named is sodA gene. Conditions: cited from earlier work.
Data set [1] in a line: micF promoter-lacZ induction (preferred kit, β-galactosidase). Particulars: promoter-lacz bacterial strain.
The nature of data set [2]: in vitro. Conditions: clpb promoter-lacz e. coli.
A short description of data set [3]: groE promoter-lacZ induction (preferred kit, β-galactosidase). Conditions: groe promoter-lacz e. coli.
Another data set relates to fepB promoter. The experiment in a line: fepB promoter-controlled β-galactosidase expression (Example 7). Conditions: 2,2'-dipyridyl 0-160 μM; FIG. 6.
Data set [4] deals with dinD promoter. The data set can be described thus: dinD promoter-controlled β-galactosidase expression (Example 7). Particulars: for dinD controlled β-galactosidase expression: 5 μg/ml, 0 min 321.
The subject of data set [5] is dinD promoter. Conditions: cited from earlier work.
A further data set concerns nfo promoter. The data set can be described thus: nfo promoter-controlled β-galactosidase expression (Example 7).
Data set [6] deals with soi28 promoter. The experiment in a line: soi28 promoter-lacZ induction (preferred kit, β-galactosidase).
Data set [7] relates to dinD promoter.
The subject of a further data set is adaA promoter. The experiment in a line: adaA (ada-alkA) promoter-controlled β-galactosidase expression (Example 7).
The next data set relates to DNA strand breaks. Particulars: cited from earlier work.
A short description of data set [8]: soi28 promoter-lacZ induction (preferred kit, β-galactosidase). Particulars: promoter-lacz bacterial strain.
Data set [9] can be described thus: nfo promoter-lacZ induction (preferred kit, β-galactosidase). Conditions: nfo promoter-lacz e. coli.
In the next data set the test system is topA promoter. The data set can be described thus: topA promoter-lacZ induction (preferred kit, β-galactosidase). Particulars: Escherichia coli, read-out: Fold Induction, topA.
Data set [10] can be described thus: in vitro. Particulars: dind promoter-lacz e. coli.
A further data set relates to clpB promoter. Conditions: 0.32 mg/ml.
A further data set deals with micF promoter. The data set can be described thus: micF promoter-lacZ induction (preferred kit, β-galactosidase).
For the next data set, the system named is ada gene. Conditions: cited from earlier work.
The test system of the next data set is micF gene. Conditions: cited from earlier work.
The subject of the next data set is katG gene. Conditions: cited from earlier work.
Another data set deals with ahp gene. Particulars: cited from earlier work.
Data set [11] is described as follows: katG promoter-lacZ induction (preferred kit, β-galactosidase). Conditions: promoter-lacz bacterial strain.
The test system of another data set is merR promoter. The experiment in a line: merR promoter-lacZ induction (preferred kit, β-galactosidase).
A further data set has as its system ada promoter. The experiment in a line: ada promoter-lacZ induction (preferred kit, β-galactosidase). Particulars: MMS 470 μM to 1880 μM; FIG. 9.
The subject of the next data set is zwf promoter. The experiment in a line: zwf promoter-lacZ induction (preferred kit, β-galactosidase). Conditions: Escherichia coli, read-out: Fold Induction, zwf.
The test system of a further data set is gsh gene. Conditions: cited from earlier work.
For the next data set, the system named is soi17 promoter. The data set can be described thus: soi17 promoter-controlled β-galactosidase expression (Example 7). Conditions: NaCl 0-0.8M; FIG. 5.
The test system of the next data set is proU promoter. The experiment in a line: proU promoter-controlled β-galactosidase expression (Example 7). Particulars: NaCl 0-0.8M; FIG. 5.
Another data set has as its system ndh promoter. The experiment in a line: ndh promoter-controlled β-galactosidase expression (Example 7).
In data set [12] the test system is soi28 promoter. The data set can be described thus: soi28 promoter-controlled β-galactosidase expression (Example 7).
Data set [13] concerns mutant strains of Salmonella typhimurium. Conditions: cited from earlier work.
The next data set relates to nfo gene. Conditions: cited from earlier work.
A further data set deals with rdc promoter. Particulars: cited from earlier work.
Another data set concerns zwf gene. Particulars: cited from earlier work.
[14] abbreviates: 2,2'-dipyridyl 0-160 μM, FIG. 6.

Where a name gives a salt, the structure may show the parent alone. Read-outs that look alike come from different tables or passages of the source.

`c1cnc2c(c1)ccc1cccnc12` [1, 10-phenanthroline]: in the data set on sodA gene, the sodA gene induction result is “also induced”.
On to `CCCO` [1-propanol], for which the results for the fold induction (in [1]; in the data set “in vitro [2]”; in data set [3]) were 4, 5.6 and 1.5, respectively.
As to `c1ccc(-c2ccccn2)nc1` [2,2'-dipyridyl], the “induction of fepB promoter (chelating metals)” value with fepB promoter is listed as “fepB induction”. For the same compound, the sodA gene induction entry in the data set on sodA gene was “also induced”. The “induction of sodA promoter (superoxide formation)” value in the data set on sodA promoter (setting [14]) is “sodA induction”. Also, the “effect on DNA replication (sfiA promoter)” value in the data set with sfiA promoter (setting [14]) was “no effect on DNA replication (sfiA promoter)”.
As to `O=[N+]([O-])c1cc[n+]([O-])c2ccccc12` [4-NQO, 4-nitroquinoline oxide], the “induction of sfiA promoter” value in the data set with sfiA promoter (4-NQO 0-100 picomolar, FIG. 2) was “induction of the sfiA and dinD promoters”. Moreover, the “induction of dinD promoter” value with dinD promoter [4] (4-NQO 0-100 picomolar, FIG. 2) is “induction of the sfiA and dinD promoters”; in the data set on dinD promoter [7] (4-NQO, FIG. 11), “causes induction of the dinD promoter”. In addition, the dinD induction entry in the data set on dinD promoter [5] is recorded as “Typical inducers of dinD”. Moreover, in the data set with nfo promoter (4-NQO 0-100 picomolar, FIG. 2), the “induction of nfo promoter” value is “minor, but dose-dependent induction”. Moreover, in the data set with soi28 promoter [6] (4-NQO, FIG. 11), the “induction of soi28 promoter” value is listed as “to a lesser extent”. The “induction of adaA promoter (DNA alkylation)” value with adaA promoter (4-NQO 0-100 picomolar, FIG. 2) was “not DNA alkylation (adaA promoter)”.
Take `O=C1O[C@H]([C@@H](O)CO)C(O)=C1O` [Ascorbic acid]: the “number of hydrogen peroxide induced DNA strand breaks” value in the data set on DNA strand breaks was “reduce the number of hydrogen peroxide induced DNA strand breaks”.
Regarding `ClC(Cl)Cl` [Chloroform], the fold induction was 4.5 in the data set “in vitro [2]” and 2 in data set [8].
For `C[S+](C)[O-]` [DMSO], the values for the fold induction (in the data set “in vitro [2]”; in data set [9]; in the data set “in vitro [10]”) were 2, 1.6 and 2.2, respectively. For the same compound, in the data set on topA promoter, the fold induction at 25 % was found to be 1.7.
In the case of `O=[N+]([O-])c1ccc(F)c([N+](=O)[O-])c1` [Dinitrofluoro benzene], the “Fold Induction, clpB” value in the data set on clpB promoter stood at 2 fold. For the same compound, the “Fold Induction, micF” value in the data set on micF promoter (0.32 mg/ml) is given as 3.2 fold.
In the case of `O=C(O)CN(CCN(CC(=O)O)CC(=O)O)CC(=O)O` [EDTA], in the data set on sodA gene, the sodA gene induction result was “also induced”.
Regarding `CCOS(C)(=O)=O` [EMS, ethlymethanosulfate], the “ada gene expression induction” value in the data set with ada gene is listed as “induce ada gene expression”.
As to `CCO` [Ethanol], the values for the fold induction in data set [1] and in [8] were 2.5 and 1.7, respectively. Also, the micF gene induction result in the data set on micF gene was “also induced”.
As to `OO` [Hydrogen peroxide], in the data set with katG gene, the katG gene induction entry is reported as “can be induced”. In addition, in the data set with ahp gene, the ahp gene induction result was “induced”. Besides, the dinD induction result in the data set on dinD promoter [5] is recorded as “does not respond to oxidative DNA damage, except when cells are exposed to extremely high concentrations of H2 O2”. In addition, the fold induction in the data set “in vitro [10]” is 3; in [11], 2.
With `[Cl][Hg][Cl]` [Mercuric chloride], the “Fold Induction, merR” value with merR promoter (2 ng/ml) is recorded as 27 fold. In addition, in the data set with merR promoter (mercuric chloride, FIG. 10), the “induction of merR promoter” value is listed as “specifically induces the merR promoter”.
`COS(C)(=O)=O` [Methyl Methane-sulfonate, methyl methanesulfonate]: the “ada gene expression induction” value in the data set on ada gene is given as “induce ada gene expression”. Moreover, in the data set with dinD promoter [4] (MMS 0-40 nM, FIG. 3), the “induction of dinD promoter (strand breaks)” value is recorded as “not via stand breaks (dinD promoter)”. The “induction of nfo promoter (oxygen-dependent damage)” value in the data set on nfo promoter (MMS 0-40 nM, FIG. 3) is on record as “not oxygen-dependent (nfo promoter)”. The “induction of ada promoter” value in the data set on ada promoter is recorded as “specifically induces the ada promoter”. Further, the “induction of adaA promoter (DNA alkylation)” value in the data set on adaA promoter (MMS 0-40 nM, FIG. 3) is on record as “induction of the adaA promoter”.
With `CO[C@@]12[C@H](COC(N)=O)C3=C(C(=O)C(C)=C(N)C3=O)N1C[C@@H]1N[C@@H]12` [Mitomycin C], the “dinD controlled β-galactosidase expression” value amounted to 350 with dinD promoter [4] (15 min exposure), 1036 in the data set with dinD promoter [4] (25 min exposure), 811 in the data set with dinD promoter [4] (35 min exposure) and 1204 in the data set on dinD promoter [4] (55 min exposure). For the same compound, the fold induction at 5 µg/mL in the data set on dinD promoter [4] (Escherichia coli, 55 min, read-out: dinD promoter induction) is approximately 4. Moreover, in the data set on dinD promoter [5], the dinD induction entry is “Typical inducers of dinD”.
For `CN(C)C=O` [N,N Dimethyl formamide], the fold induction in [1] was found to be 3.3; in the data set “in vitro [2]”, 2.5. In the data set with zwf promoter, the fold induction at 0.8 % is 1.5.
Turning to `CCN1C(=O)C=CC1=O` [N-ethylmaleimide], the gsh gene induction result with gsh gene is “induced”.
As to `[Cl-].[Na+]` [NaCl, sodium chloride], in the data set on soi17 promoter, the “induction of soi17 promoter (superoxide formation)” value is “no induction of sodA or soi17”. Also, the “induction of sodA promoter (superoxide formation)” value with sodA promoter (NaCl 0-0.8M, FIG. 5) is listed as “no induction of sodA or soi17”. The “induction of proU promoter” value with proU promoter is “induces the proU promoter”.
As for `C[n+]1ccc(-c2cc[n+](C)cc2)cc1` [Paraquat], in the data set on ndh promoter, the “induction of ndh promoter” value is reported as “negligible effect”. The “ndh induction, galactosidase activity” value with ndh promoter (50 μM, 0 μM control 464) is 980 units. Further, in the data set on sodA gene, the sodA gene induction result is “strongly induced”. In addition, the “induction of micF promoter” value in the data set with micF promoter is “specific induction of the soi28 and micF promoters”. Moreover, the “induction of soi28 promoter” value was “cause induction of the soi28 promoter” in the data set on soi28 promoter [12]; “specific induction of the soi28 and micF promoters” with soi28 promoter [6]. Besides, the “soi28 induction, galactosidase activity” value with soi28 promoter [12] (50 μM, 0 μM control 670) was 2370 units. Moreover, the “response in Ames Assay” value in data set [13] is given as “neither compound produces a positive response”. For the same compound, the fold induction at 8000 µg/mL with zwf promoter is 3. The “effect on merR promoter” value in the data set with merR promoter is “apparent inhibition”. In the data set with micF gene, the micF gene induction result is reported as “induced”. The nfo induction result in the data set with nfo gene was “specifically induced”. Further, the “induction of nfo promoter” value with nfo promoter was “induced the nfo promoter”. Moreover, the “nfo induction, galactosidase activity” value in the data set with nfo promoter (50 μM, 0 μM control 2952) stood at 8100 units. The “effect on dinD promoter” value in the data set with dinD promoter [7] is “apparent inhibition”.
In the case of `Oc1ccccc1` [Phenol], the fold induction in the data set “in vitro [2]” stood at 1.5; in data set [3], 2.2.
For `CC(C)(C)c1cc(O)ccc1O` [Tert-butyl hydroquinone], the fold induction at 2000 µM was found to be 2.6 in data set [1] and 2.8 in “in vitro [2]”.
For the compound `CC1=CC(=O)c2ccccc2C1=O` [menadione], the sodA gene induction entry in the data set on sodA gene is recorded as “strongly induced”. In addition, the nfo induction result in the data set on nfo gene was “specifically induced”.
On to `CN(C)c1ccc2nc3ccc(=[N+](C)C)cc-3sc2c1` [methylene blue], for which, in the data set with sodA gene, the sodA gene induction result is “strongly induced”.
As for `C[n+]1c2ccccc2nc2ccccc21` [phenazine methyl sulfate], in the data set on sodA gene, the sodA gene induction result is recorded as “strongly induced”.
In the case of `CC1=CC(=O)c2c(O)cccc2C1=O` [plumbagin], the sodA gene induction result with sodA gene is reported as “strongly induced”. Also, the “induction of soi28 promoter” value in the data set on soi28 promoter [12] (plumbagin 0-160 μM, FIG. 4) is reported as “cause induction of the soi28 promoter”. Moreover, the “response in Ames Assay” value in data set [13] is on record as “neither compound produces a positive response”.
Consider `COC1=C(N)C(=O)c2nc(-c3nc(C(=O)O)c(C)c(-c4ccc(OC)c(OC)c4O)c3N)ccc2C1=O` [streptonigrin], for which the sodA gene induction result in the data set with sodA gene is on record as “strongly induced”.
For the compound `OCC(O)CS` (stereo not drawn) [thioglycerol], in the data set with rdc promoter, the rdc promoter induction result was “induced”.
With bleomycin, the dinD induction result with dinD promoter [5] is “Typical inducers of dinD”.
Consider nitric oxide, for which the zwf gene induction result in the data set with zwf gene is “induced”.
